Laboratory results as given in patent US20090298834A1, “4-(AMINOMETHYL)CYCLOHEXANAMINE DERIVATIVES AS CALCIUM CHANNEL BLOCKERS” (priority 2008, published 2009).

Legend:
[1] = biological target: T1, human α1G T-type channels (Homo sapiens, UniProt O43497); assay: T-type calcium channel block, whole cell patch clamp (α1G); assay type: cell-based; settings: HEK cells stably expressing human α1G; mainly non-inactivated protocol; values above 10 μM represented as 10 μM, values below 0.30 μM represented as 0.30 μM
T1 construct: expressed in transfected cells; host or cells: HEK 293
Description: (§1) T-type calcium channel blocking activity was assayed in human embryonic kidney cells, HEK 293, stably transfected with the T-type calcium channel subunits. Briefly, cells were cultured in Dulbecco's modified eagle medium (DMEM) supplemented with 10% fetal bovine serum, 200 U/ml penicillin and 0.2 mg/ml streptomycin at 37° C. with 5% CO2. At 85% confluency cells were split with 0.25% trypsin/1 mM EDTA and plated at 10% confluency on glass coverslips. At 12 hours the medium was replaced and the cells stably transfected using a standard calcium phosphate protocol and the appropriate calcium channel cDNA's. Fresh DMEM was supplied and the cells transferred to 28° C./5% CO2. Cells were incubated for 1 to 2 days prior to whole cell recording.
(§2) Standard patch-clamp techniques were employed to identify blockers of T-type currents. Briefly, previously described HEK cell lines stably expressing human α1G, α1H and α1I T-type channels were used for all the recordings (passage #: 4-20, 37° C., 5% CO2). Whole cell patch clamp experiments were performed using an Axopatch 200B amplifier (Axon Instruments, Burlingame, Calif.) linked to a personal computer equipped with pCLAMP software. Data were analyzed using Clampfit (Axon Instruments) and SigmaPlot 4.0 (Jandel Scientific). To obtain T-type currents, plastic dishes containing semi-confluent cells were positioned on the stage of a ZEISS AXIOVERT S100 microscope after replacing the culture medium with external solution (see below). Whole-cell patches were obtained using pipettes (borosilicate glass with filament, O.D.: 1.5 mm, I.D.: 0.86 mm, 10 cm length), fabricated on a SUTTER P-97 puller with resistance values of ˜5 MΩ (see below for internal solution).
(§3) In the non-inactivating protocol, the holding potential is set at −110 mV and with a pre-pulse at −100 mV for 1 second prior to the test pulse at −40 mV for 50 ms. In the inactivation protocol, the pre-pulse is at approximately −85 mV for 1 second, which inactivates about 15% of the T-type channels.
(§4) Test compounds were dissolved in external solution, 0.1-0.01% DMSO. After 10 min rest, they were applied by gravity close to the cell using a WPI microfil tubing. The “non-inactivated” pre-pulse was used to examine the resting block of a compound. The “inactivated” protocol was employed to study voltage-dependent block. However, the initial data shown below were mainly obtained using the non-inactivated protocol only. . IC50 values are shown for various compounds of the invention in Table 4 for the drug of interest. Values are shown in μM and values above 10 μM are simply represented as 10 μM.

[2] = biological target: T2, human α1H T-type channels (Homo sapiens, UniProt O95180); assay: T-type calcium channel block, whole cell patch clamp (α1H); assay type: cell-based; settings: HEK cells stably expressing human α1H; mainly non-inactivated protocol; values above 10 μM represented as 10 μM
T2 construct: expressed in transfected cells; host or cells: HEK 293
Description: as §1, §2, §3, §4

T2 sequence (O95180 whole entry): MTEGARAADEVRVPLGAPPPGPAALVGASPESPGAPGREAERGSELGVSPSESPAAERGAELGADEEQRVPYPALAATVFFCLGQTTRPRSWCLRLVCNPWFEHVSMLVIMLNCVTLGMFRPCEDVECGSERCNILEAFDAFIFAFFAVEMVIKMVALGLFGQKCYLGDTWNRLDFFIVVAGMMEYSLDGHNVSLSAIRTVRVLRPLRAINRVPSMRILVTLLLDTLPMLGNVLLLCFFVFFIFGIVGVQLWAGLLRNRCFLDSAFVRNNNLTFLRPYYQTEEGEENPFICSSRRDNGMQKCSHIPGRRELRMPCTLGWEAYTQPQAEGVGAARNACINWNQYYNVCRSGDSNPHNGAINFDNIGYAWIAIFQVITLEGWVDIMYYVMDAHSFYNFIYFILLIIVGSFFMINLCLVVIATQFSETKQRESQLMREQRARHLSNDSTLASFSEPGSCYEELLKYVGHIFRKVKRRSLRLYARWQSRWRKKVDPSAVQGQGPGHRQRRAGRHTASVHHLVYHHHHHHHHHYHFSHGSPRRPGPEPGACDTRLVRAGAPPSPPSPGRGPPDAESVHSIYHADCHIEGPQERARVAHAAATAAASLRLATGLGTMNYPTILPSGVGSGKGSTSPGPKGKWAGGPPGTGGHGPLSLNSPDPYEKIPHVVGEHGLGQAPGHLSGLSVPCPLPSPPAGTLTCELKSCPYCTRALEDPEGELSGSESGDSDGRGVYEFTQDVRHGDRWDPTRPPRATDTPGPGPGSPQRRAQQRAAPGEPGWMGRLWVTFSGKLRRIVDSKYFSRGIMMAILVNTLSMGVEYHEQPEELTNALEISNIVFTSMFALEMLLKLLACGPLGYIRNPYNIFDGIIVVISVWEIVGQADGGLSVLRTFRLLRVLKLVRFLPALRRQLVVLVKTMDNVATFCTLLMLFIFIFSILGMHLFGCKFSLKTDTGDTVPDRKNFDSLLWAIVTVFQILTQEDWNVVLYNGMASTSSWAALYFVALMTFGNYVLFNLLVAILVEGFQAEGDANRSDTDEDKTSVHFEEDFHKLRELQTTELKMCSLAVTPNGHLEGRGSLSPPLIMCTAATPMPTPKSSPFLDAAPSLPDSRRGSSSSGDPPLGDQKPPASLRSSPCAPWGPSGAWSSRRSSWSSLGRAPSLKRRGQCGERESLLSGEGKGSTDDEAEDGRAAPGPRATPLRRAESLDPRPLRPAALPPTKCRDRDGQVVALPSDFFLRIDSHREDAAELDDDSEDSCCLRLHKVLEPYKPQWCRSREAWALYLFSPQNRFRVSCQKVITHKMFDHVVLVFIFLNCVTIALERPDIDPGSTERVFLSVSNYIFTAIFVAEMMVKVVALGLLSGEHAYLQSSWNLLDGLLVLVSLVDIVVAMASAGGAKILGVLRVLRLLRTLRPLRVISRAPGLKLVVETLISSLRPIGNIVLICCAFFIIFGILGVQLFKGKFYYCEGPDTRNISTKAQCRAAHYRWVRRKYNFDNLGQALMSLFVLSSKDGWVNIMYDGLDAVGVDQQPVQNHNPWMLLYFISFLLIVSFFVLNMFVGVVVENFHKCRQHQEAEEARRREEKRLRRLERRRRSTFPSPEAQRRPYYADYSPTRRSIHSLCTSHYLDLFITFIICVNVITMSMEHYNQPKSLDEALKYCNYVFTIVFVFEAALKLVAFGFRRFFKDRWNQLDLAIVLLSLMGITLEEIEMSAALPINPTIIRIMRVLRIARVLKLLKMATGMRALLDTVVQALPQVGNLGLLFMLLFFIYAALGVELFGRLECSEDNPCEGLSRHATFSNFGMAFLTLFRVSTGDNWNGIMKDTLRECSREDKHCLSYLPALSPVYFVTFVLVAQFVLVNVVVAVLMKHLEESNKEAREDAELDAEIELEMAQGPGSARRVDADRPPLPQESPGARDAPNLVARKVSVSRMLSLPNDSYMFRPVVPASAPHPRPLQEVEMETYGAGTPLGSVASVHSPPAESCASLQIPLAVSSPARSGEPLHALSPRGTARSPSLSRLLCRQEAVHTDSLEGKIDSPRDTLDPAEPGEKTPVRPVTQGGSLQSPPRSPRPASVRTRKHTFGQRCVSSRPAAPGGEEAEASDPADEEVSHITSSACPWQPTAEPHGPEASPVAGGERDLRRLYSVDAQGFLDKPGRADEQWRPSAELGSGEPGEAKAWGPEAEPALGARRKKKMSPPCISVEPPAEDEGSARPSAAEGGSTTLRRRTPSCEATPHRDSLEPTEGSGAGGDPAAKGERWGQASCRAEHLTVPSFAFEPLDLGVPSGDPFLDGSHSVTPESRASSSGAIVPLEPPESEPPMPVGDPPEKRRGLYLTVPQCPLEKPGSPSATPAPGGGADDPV
T1 sequence (O43497 whole entry): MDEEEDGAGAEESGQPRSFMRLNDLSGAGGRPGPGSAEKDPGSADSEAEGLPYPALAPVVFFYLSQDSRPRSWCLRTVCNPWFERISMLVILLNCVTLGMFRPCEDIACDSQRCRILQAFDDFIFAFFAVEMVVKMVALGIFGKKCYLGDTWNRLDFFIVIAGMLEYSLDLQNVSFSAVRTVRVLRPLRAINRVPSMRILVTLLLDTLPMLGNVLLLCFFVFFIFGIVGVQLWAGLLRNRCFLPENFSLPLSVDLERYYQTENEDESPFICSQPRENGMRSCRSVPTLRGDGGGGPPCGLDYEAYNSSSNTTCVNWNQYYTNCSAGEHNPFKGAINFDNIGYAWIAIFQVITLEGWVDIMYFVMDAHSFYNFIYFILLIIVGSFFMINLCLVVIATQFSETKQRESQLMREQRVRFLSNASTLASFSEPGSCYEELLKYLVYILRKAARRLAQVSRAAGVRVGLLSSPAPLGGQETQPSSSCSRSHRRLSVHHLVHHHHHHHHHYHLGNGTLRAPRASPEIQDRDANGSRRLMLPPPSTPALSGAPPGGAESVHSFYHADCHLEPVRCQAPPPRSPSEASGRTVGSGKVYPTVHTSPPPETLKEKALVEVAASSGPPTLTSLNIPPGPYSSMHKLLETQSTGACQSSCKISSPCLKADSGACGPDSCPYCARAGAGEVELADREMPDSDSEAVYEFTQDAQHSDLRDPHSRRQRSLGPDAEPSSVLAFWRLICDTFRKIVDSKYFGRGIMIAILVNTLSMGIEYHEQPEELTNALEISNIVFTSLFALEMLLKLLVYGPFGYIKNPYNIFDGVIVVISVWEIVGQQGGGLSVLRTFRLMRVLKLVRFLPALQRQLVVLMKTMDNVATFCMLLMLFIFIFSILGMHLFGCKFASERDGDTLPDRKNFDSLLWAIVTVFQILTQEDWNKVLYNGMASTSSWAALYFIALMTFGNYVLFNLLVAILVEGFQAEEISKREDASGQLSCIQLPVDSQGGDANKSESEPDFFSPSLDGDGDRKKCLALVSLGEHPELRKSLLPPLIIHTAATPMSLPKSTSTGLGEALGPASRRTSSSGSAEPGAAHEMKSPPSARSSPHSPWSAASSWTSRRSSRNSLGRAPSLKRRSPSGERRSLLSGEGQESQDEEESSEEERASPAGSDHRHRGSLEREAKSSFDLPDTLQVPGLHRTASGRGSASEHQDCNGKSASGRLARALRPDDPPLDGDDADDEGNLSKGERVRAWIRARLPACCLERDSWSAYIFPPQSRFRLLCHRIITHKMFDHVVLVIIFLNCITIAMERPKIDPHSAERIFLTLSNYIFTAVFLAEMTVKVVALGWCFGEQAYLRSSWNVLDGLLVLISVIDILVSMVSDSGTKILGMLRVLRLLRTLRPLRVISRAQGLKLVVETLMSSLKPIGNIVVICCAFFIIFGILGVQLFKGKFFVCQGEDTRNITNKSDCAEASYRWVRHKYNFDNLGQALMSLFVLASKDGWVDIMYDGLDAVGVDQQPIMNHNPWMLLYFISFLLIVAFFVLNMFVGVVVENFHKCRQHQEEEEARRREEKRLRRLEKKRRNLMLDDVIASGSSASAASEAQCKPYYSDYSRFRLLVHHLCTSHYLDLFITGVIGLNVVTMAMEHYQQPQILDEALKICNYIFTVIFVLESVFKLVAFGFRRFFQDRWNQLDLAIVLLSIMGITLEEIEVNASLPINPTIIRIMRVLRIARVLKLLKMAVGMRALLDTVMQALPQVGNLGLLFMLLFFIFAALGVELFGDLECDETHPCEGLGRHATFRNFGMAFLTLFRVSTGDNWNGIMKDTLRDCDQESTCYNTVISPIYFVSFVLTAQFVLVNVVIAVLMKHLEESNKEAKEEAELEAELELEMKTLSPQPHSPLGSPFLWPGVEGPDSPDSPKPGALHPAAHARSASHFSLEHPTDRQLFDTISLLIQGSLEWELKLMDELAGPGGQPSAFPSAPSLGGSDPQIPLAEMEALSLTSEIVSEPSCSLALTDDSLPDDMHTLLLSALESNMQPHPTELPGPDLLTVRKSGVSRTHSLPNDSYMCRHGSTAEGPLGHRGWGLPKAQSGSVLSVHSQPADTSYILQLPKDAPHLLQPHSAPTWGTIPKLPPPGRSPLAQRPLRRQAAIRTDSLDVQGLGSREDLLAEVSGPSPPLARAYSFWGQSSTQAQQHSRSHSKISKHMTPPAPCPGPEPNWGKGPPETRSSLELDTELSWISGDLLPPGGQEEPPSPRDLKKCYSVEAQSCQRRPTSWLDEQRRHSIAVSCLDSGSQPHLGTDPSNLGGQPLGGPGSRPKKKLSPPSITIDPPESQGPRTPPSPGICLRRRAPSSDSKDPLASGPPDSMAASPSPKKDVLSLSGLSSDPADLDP

Compound | IC50 [1] | IC50 [2]
CC(C)(C)[C@H](O)C(=O)NC1CCC(CC(=O)Nc2cc(C(F)(F)F)cc(C(F)(F)F)c2)CC1 (stereo in doubt) [Compound 108, (S)-N-((trans)-4-(2-(3,5-bis(trifluoromethyl)phenylamino)-2-oxoethyl)cyclohexyl)-2-hydroxy-3,3-dimethylbutanamide] | 450 nM | 1530 nM
CC(C)(C)C(O)CN[C@H]1CC[C@@H](CNC(=O)c2cc(C(F)(F)F)cc(C(F)(F)F)c2)CC1 (stereo partly shown) [Compound 1] | 390 nM | 580 nM
CC(C)(C)C(O)CN[C@H]1CC[C@@H](CNC(=O)c2cc(F)cc(C(F)(F)F)c2)CC1 (stereo partly drawn) [Compound 2, 3-fluoro-N-((cis-4-(2-hydroxy-3,3-dimethylbutylamino)cyclohexyl)methyl)-5-(trifluoromethyl)benzamide] | 450 nM | 550 nM
CC(C)(C)C(O)CN[C@H]1CC[C@H](CNC(=O)c2cc(C(F)(F)F)cc(C(F)(F)F)c2)CC1 (stereo partly drawn) [Compound 3, N-((trans-4-(2-hydroxy-3,3-dimethylbutylamino)cyclohexyl)methyl)-3,5-bis(trifluoromethyl)benzamide] | 470 nM | 1020 nM
CC(C)(O)CN[C@H]1CC[C@H](CNC(=O)c2cc(C(F)(F)F)cc(C(F)(F)F)c2)CC1 [Compound 4, N-((trans-4-(2-hydroxy-2-methylpropylamino)cyclohexyl)methyl)-3,5-bis(trifluoromethyl)benzamide] | 4540 nM | 4430 nM
O=C(NC[C@H]1CC[C@@H](NCc2ccccc2O)CC1)c1cc(C(F)(F)F)cc(C(F)(F)F)c1 [Compound 7, N-((cis-4-(2-hydroxybenzylamino)cyclohexyl)methyl)-3,5-bis(trifluoromethyl)benzamide] | ≤ 300 nM | 1540 nM
O=C(NC[C@H]1CC[C@@H](NCc2cccnc2F)CC1)c1cc(C(F)(F)F)cc(C(F)(F)F)c1 [Compound 8, N-((cis-4-((2-fluoropyridin-3-yl)methylamino)cyclohexyl)methyl)-3,5-bis(trifluoromethyl)benzamide] | 3350 nM | 4840 nM
Cc1cccc(CN[C@H]2CC[C@@H](CNC(=O)c3cc(C(F)(F)F)cc(C(F)(F)F)c3)CC2)c1O [Compound 9, N-((cis-4-(2-hydroxy-3-methylbenzylamino)cyclohexyl)methyl)-3,5-bis(trifluoromethyl)benzamide] | 850 nM | 710 nM
COc1ccccc1CN[C@H]1CC[C@@H](CNC(=O)c2cc(C(F)(F)F)cc(C(F)(F)F)c2)CC1 [Compound 10, N-((cis-4-(2-methoxybenzylamino)cyclohexyl)methyl)-3,5-bis(trifluoromethyl)benzamide] | 470 nM | 320 nM
COc1cccnc1CN[C@H]1CC[C@@H](CNC(=O)c2cc(C(F)(F)F)cc(C(F)(F)F)c2)CC1 [Compound 11, N-((cis-4-((3-methoxypyridin-2-yl)methylamino)cyclohexyl)methyl)-3,5-bis(trifluoromethyl)benzamide] | 1570 nM | 2330 nM
O=C(NC[C@H]1CC[C@@H](NCc2c(F)cccc2Cl)CC1)c1cc(C(F)(F)F)cc(C(F)(F)F)c1 [Compound 13, N-((cis-4-(2-chloro-6-fluorobenzylamino)cyclohexyl)methyl)-3,5-bis(trifluoromethyl)benzamide] | 460 nM | 2830 nM
COc1ccc(CN[C@H]2CC[C@@H](CNC(=O)c3cc(C(F)(F)F)cc(C(F)(F)F)c3)CC2)c(OC)c1 [Compound 14, N-((cis-4-(2,4-dimethoxybenzylamino)cyclohexyl)methyl)-3,5-bis(trifluoromethyl)benzamide] | ≤ 300 nM | 560 nM
O=C(NC[C@H]1CC[C@@H](NCc2ccccc2O)CC1)c1cc(F)cc(C(F)(F)F)c1 [Compound 15, 3-fluoro-N-((cis-4-(2-hydroxybenzylamino)cyclohexyl)methyl)-5-(trifluoromethyl)benzamide] | 780 nM | 1650 nM
O=C(NC[C@H]1CC[C@@H](NCc2ncccc2O)CC1)c1cc(F)cc(C(F)(F)F)c1 [Compound 16, 3-fluoro-N-((cis-4-((3-hydroxypyridin-2-yl)methylamino)cyclohexyl)methyl)-5-(trifluoromethyl)benzamide] | 4440 nM | ≥ 10000 nM
O=C(NC[C@H]1CC[C@@H](NCc2cccnc2F)CC1)c1cc(F)cc(C(F)(F)F)c1 [Compound 17, 3-fluoro-N-((cis-4-((2-fluoropyridin-3-yl)methylamino)cyclohexyl)methyl)-5-(trifluoromethyl)benzamide] | 7730 nM | 4940 nM
Cc1cccc(CN[C@H]2CC[C@@H](CNC(=O)c3cc(F)cc(C(F)(F)F)c3)CC2)c1O [Compound 18, 3-fluoro-N-((cis-4-(2-hydroxy-3-methylbenzylamino)cyclohexyl)methyl)-5-(trifluoromethyl)benzamide] | 460 nM | 1370 nM
COc1ccccc1CN[C@H]1CC[C@@H](CNC(=O)c2cc(F)cc(C(F)(F)F)c2)CC1 [Compound 19, 3-fluoro-N-((cis-4-(2-methoxybenzylamino)cyclohexyl)methyl)-5-(trifluoromethyl)benzamide] | 530 nM | 1010 nM
COc1cccnc1CN[C@H]1CC[C@@H](CNC(=O)c2cc(F)cc(C(F)(F)F)c2)CC1 [Compound 20, 3-fluoro-N-((cis-4-((3-methoxypyridin-2-yl)methylamino)cyclohexyl)methyl)-5-(trifluoromethyl)benzamide] | 3320 nM | 5350 nM
O=C(NC[C@H]1CC[C@@H](NCc2cccc(F)c2O)CC1)c1cc(F)cc(C(F)(F)F)c1 [Compound 21, 3-fluoro-N-((cis-4-(3-fluoro-2-hydroxybenzylamino)cyclohexyl)methyl)-5-(trifluoromethyl)benzamide] | 840 nM | 4580 nM
O=C(NC[C@H]1CC[C@@H](NCc2c(O)cccc2F)CC1)c1cc(F)cc(C(F)(F)F)c1 [Compound 22, 3-fluoro-N-((cis-4-(2-fluoro-6-hydroxybenzylamino)cyclohexyl)methyl)-5-(trifluoromethyl)benzamide] | 990 nM | 3080 nM
O=C(NC[C@H]1CC[C@@H](NCc2c(F)cccc2Cl)CC1)c1cc(F)cc(C(F)(F)F)c1 [Compound 23, N-((cis-4-(2-chloro-6-fluorobenzylamino)cyclohexyl)methyl)-3-fluoro-5-(trifluoromethyl)benzamide] | 910 nM | 2870 nM
COc1ccc(CN[C@H]2CC[C@@H](CNC(=O)c3cc(F)cc(C(F)(F)F)c3)CC2)c(OC)c1 [Compound 24, N-((cis-4-(2,4-dimethoxybenzylamino)cyclohexyl)methyl)-3-fluoro-5-(trifluoromethyl)benzamide] | 340 nM | 590 nM
O=C(CC1CC1)NCCN[C@H]1CC[C@H](CNC(=O)c2cc(C(F)(F)F)cc(C(F)(F)F)c2)CC1 [Compound 103, N-((trans-4-(2-(2-cyclopropylacetamido)ethylamino)cyclohexyl)methyl)-3,5-bis(trifluoromethyl)benzamide] | – | 2080 nM
O=C(NC[C@H]1CC[C@@H](N2CC(C(F)(F)F)(C(F)(F)F)OC2=O)CC1)c1cc(F)cc(C(F)(F)F)c1 [Compound 154, 3-fluoro-N-((cis-4-(2-oxo-5,5-bis(trifluoromethyl)oxazolidin-3-yl)cyclohexyl)methyl)-5-(trifluoromethyl)benzamide] | – | 6160 nM
